Holding throughout (type): cell-based
One assay deals with HeLa. Briefly: MTT cytotoxicity assay, HeLa. As to conditions: Homo sapiens, 48 h, mean ± SD, three independent experiments. The protocol:
(§1) The in vitro cytotoxic potency of DHAA acyl-thiourea derivatives 8a–8o and 9a–9o were evaluated by 3-(4,5-dimethylthiazol-2-yl)-2,5-diphenyltetrazolium bromide (MTT) assay against HeLa, SK-OV-3 and MGC-803 tumor cell lines, with 5-FU as the positive control.
(§2) General procedure for cytotoxic evaluation in vitro: HeLa, HepG2, SK-OV-3 and MGC-803 cells were seeded into 96-well microculture plates and allowed to adhere for 24 h, respectively. After cells were exposed to compounds at concentrations from 100 to 0.01 μM for 48 h, medium was aspirated and replenished with complete medium. IC50 was evaluated by MTT tetrazolium dye assay. Each experiment was performed three times; Statistical analysis: All statistical analysis was performed with SPSS Version 10 (SPSS, Chicago, IL, USA). Data was analyzed by one-way ANOVA. Mean separations were performed using the least significant difference method. Each experiment was replicated thrice, and all experiments yielded similar results. Measurements from all the replicates were combined, and treatment effects were analyzed.

The next assay has as its system SK-OV-3. Briefly: MTT cytotoxicity assay, SK-OV-3. Conditions: Homo sapiens, 48 h, mean ± SD, three independent experiments. Here is the method: as §1, §2
Another assay has as its system MGC-803. The assay can be described thus: MTT cytotoxicity assay, MGC-803. As to conditions: Homo sapiens, 48 h, mean ± SD, three independent experiments. The protocol: as §1, §2
For another assay, the system named is HL-7702. The assay can be described thus: MTT cytotoxicity assay, HL-7702 normal cells. As to conditions: L02, 48 h, normal human cells, mean ± SD, three independent experiments. The protocol:
[The source words this procedure for another cell line and reports this cell line under the same test.] as §1, §2

Structures are written as SMILES.

With `Cc1ccc(NC(=O)[C@@H](Cc2ccccc2)NC(=S)NC(=O)[C@]2(C)CCC[C@]3(C)c4ccc(C(C)C)cc4CCC23)cc1` (stereo partly drawn) [Compound 9c, (1R,4aS)-7-Isopropyl-1,4a-dimethyl-N-(((R)-1-oxo-3-phenyl-1-(p-tolylamino)propan-2-yl)carbamothioyl)-1,2,3,4,4a,9,10,10a-octahydrophenanthrene-1-carboxamide], the IC50 was 19.1 ± 1.08 µM in the assay with HeLa, 16.2 ± 1.98 µM with SK-OV-3, 19.2 ± 1.66 µM with MGC-803 and 36.2 ± 1.39 µM in the assay with HL-7702.
As for `CC(C)c1ccc2c(c1)CCC1[C@](C)(C(=O)NC(=S)N[C@H](Cc3ccccc3)C(=O)Nc3ccccc3Cl)CCC[C@]21C` (stereo partly drawn) [Compound 9d, (1R,4aS)-N-(((R)-1-((2-Chlorophenyl)amino)-1-oxo-3-phenylpropan-2-yl)carbamothioyl)-7-isopropyl-1,4a-dimethyl-1,2,3,4,4a,9,10,10a-octahydrophenanthrene-1-carboxamide], the IC50 in the assay with HeLa worked out at 17 ± 1.76 µM; with SK-OV-3, 16.9 ± 1.43 µM; in the assay with MGC-803, 20.4 ± 3.41 µM; with HL-7702 it was 36.5 ± 1.43 µM.
The matching figures for `CC(C)c1ccc2c(c1)CCC1[C@](C)(C(=O)NC(=S)N[C@H](Cc3ccccc3)C(=O)Nc3ccc(Cl)cc3)CCC[C@]21C` (stereo partly drawn) [Compound 9e, (1R,4aS)-N-(((R)-1-((4-Chlorophenyl)amino)-1-oxo-3-phenylpropan-2-yl)carbamothioyl)-7-isopropyl-1,4a-dimethyl-1,2,3,4,4a,9,10,10a-octahydrophenanthrene-1-carboxamide]: 17.2 ± 1.25 µM, 18.5 ± 1.27 µM, 17.1 ± 2.87 µM and 38.5 ± 1.22 µM.
In the case of `COc1ccccc1NC(=O)[C@@H](Cc1ccccc1)NC(=S)NC(=O)[C@]1(C)CCC[C@]2(C)c3ccc(C(C)C)cc3CCC12` (stereo partly drawn) [Compound 9f, (1R,4aS)-7-Isopropyl-N-(((R)-1-((2-methoxyphenyl)amino)-1-oxo-3-phenylpropan-2-yl)carbamothioyl)-1,4a-dimethyl-1,2,3,4,4a,9,10,10a-octahydrophenanthrene-1-carboxamide], the half-inhibitory concentration (IC50) in the assay on HeLa is 28.1 ± 2.23 µM; with SK-OV-3 it was 18.9 ± 1.72 µM; with MGC-803, 20.7 ± 1.41 µM; in the assay on HL-7702, 38.4 ± 1.45 µM.
Turning to `COc1ccc(NC(=O)[C@@H](Cc2ccccc2)NC(=S)NC(=O)[C@]2(C)CCC[C@]3(C)c4ccc(C(C)C)cc4CCC23)cc1` (stereo partly drawn) [Compound 9g, (1R,4aS)-7-Isopropyl-N-(((R)-1-((4-methoxyphenyl)amino)-1-oxo-3-phenylpropan-2-yl)carbamothioyl)-1,4a-dimethyl-1,2,3,4,4a,9,10,10a-octahydrophenanthrene-1-carboxamide], the IC50 worked out at 15.6 ± 1.53 µM in the assay on HeLa, 20.1 ± 1.78 µM with SK-OV-3, 26.1 ± 2.63 µM with MGC-803 and 41.1 ± 1.32 µM in the assay on HL-7702.
`CC(C)c1ccc2c(c1)CCC1[C@](C)(C(=O)NC(=S)N[C@H](Cc3ccccc3)C(=O)Nc3ccccc3F)CCC[C@]21C` (stereo partly drawn) [Compound 9h, (1R,4aS)-N-(((R)-1-((2-Fluorophenyl)amino)-1-oxo-3-phenylpropan-2-yl)carbamothioyl)-7-isopropyl-1,4a-dimethyl-1,2,3,4,4a,9,10,10a-octahydrophenanthrene-1-carboxamide]: the IC50 in the assay with HeLa stood at 18.8 ± 1.45 µM; with SK-OV-3, 28.8 ± 2.32 µM; in the assay on MGC-803, 24.7 ± 3.33 µM; in the assay on HL-7702, 49.4 ± 2.64 µM.
For `CC(C)c1ccc2c(c1)CCC1[C@](C)(C(=O)NC(=S)N[C@H](Cc3ccccc3)C(=O)Nc3ccc(F)cc3)CCC[C@]21C` (stereo partly drawn) [Compound 9i, (1R,4aS)-N-(((R)-1-((4-Fluorophenyl)amino)-1-oxo-3-phenylpropan-2-yl)carbamothioyl)-7-isopropyl-1,4a-dimethyl-1,2,3,4,4a,9,10,10a-octahydrophenanthrene-1-carboxamide], the IC50 in the assay on HeLa came to 23.7 ± 1.01 µM; in the assay on SK-OV-3, 26.5 ± 2.07 µM; with MGC-803, 21.4 ± 1.88 µM; in the assay on HL-7702 it was 46.4 ± 2.44 µM.
In the case of `CC(C)c1ccc2c(c1)CCC1[C@](C)(C(=O)NC(=S)N[C@H](Cc3ccccc3)C(=O)Nc3ccccc3Br)CCC[C@]21C` (stereo partly drawn) [Compound 9j, (1R,4aS)-N-(((R)-1-((2-Bromophenyl)amino)-1-oxo-3-phenylpropan-2-yl)carbamothioyl)-7-isopropyl-1,4a-dimethyl-1,2,3,4,4a,9,10,10a-octahydrophenanthrene-1-carboxamide], the IC50 is 12.7 ± 1.03 µM in the assay on HeLa, 40.3 ± 3.41 µM in the assay with SK-OV-3, 21.3 ± 1.27 µM with MGC-803 and 60.5 ± 3.43 µM in the assay on HL-7702.
On to `CC(C)c1ccc2c(c1)CCC1[C@](C)(C(=O)NC(=S)N[C@H](Cc3ccccc3)C(=O)Nc3ccc(Br)cc3)CCC[C@]21C` (stereo partly drawn) [Compound 9k, (1R,4aS)-N-(((R)-1-((4-Bromophenyl)amino)-1-oxo-3-phenylpropan-2-yl)carbamothioyl)-7-isopropyl-1,4a-dimethyl-1,2,3,4,4a,9,10,10a-octahydrophenanthrene-1-carboxamide], for which the IC50 came to 15.7 ± 1.13 µM in the assay on HeLa, 46.7 ± 4.76 µM with SK-OV-3, 25.5 ± 2.47 µM in the assay on MGC-803 and 66.5 ± 4.48 µM in the assay on HL-7702.
The matching figures for `Cc1cc(C)cc(NC(=O)[C@@H](Cc2ccccc2)NC(=S)NC(=O)[C@]2(C)CCC[C@]3(C)c4ccc(C(C)C)cc4CCC23)c1` (stereo partly drawn) [Compound 9l, (1R,4aS)-N-(((R)-1-((3,5-Dimethylphenyl)amino)-1-oxo-3-phenylpropan-2-yl)carbamothioyl)-7-isopropyl-1,4a-dimethyl-1,2,3,4,4a,9,10,10a-octahydrophenanthrene-1-carboxamide]: 15.8 ± 1.55 µM, 31.5 ± 2.23 µM, 18.1 µM and 53.4 ± 2.24 µM.
The matching figures for `CC(C)c1ccc2c(c1)CCC1[C@](C)(C(=O)NC(=S)N[C@H](Cc3ccccc3)C(=O)Nc3cccc4ccccc34)CCC[C@]21C` (stereo partly drawn) [Compound 9m, (1R,4aS)-7-Isopropyl-1,4a-dimethyl-N-(((R)-1-(naphthalen-1-ylamino)-1-oxo-3-phenylpropan-2-yl)carbamothioyl)-1,2,3,4,4a,9,10,10a-octahydrophenanthrene-1-carboxamide]: 12.8 ± 1.2 µM, 15.3 ± 1.73 µM, 22.9 ± 1.66 µM and 35.6 ± 1.53 µM.
As for `COc1cc(NC(=O)[C@@H](Cc2ccccc2)NC(=S)NC(=O)[C@]2(C)CCC[C@]3(C)c4ccc(C(C)C)cc4CCC23)cc(OC)c1OC` (stereo partly drawn) [Compound 9o, (1R,4aS)-7-Isopropyl-1,4a-dimethyl-N-(((R)-1-oxo-3-phenyl-1-((3,4,5-trimethoxyphenyl)amino)propan-2-yl)carbamothioyl)-1,2,3,4,4a,9,10,10a-octahydrophenanthrene-1-carboxamide], the IC50 in the assay on HeLa was 17.5 ± 1.54 µM; with SK-OV-3, 29.3 ± 2.04 µM; in the assay with MGC-803, 29.3 ± 2.09 µM; with HL-7702 it was 59.3 ± 2.54 µM.

(Values after article PMC4519859, “Synthesis and Biological Evaluation of Novel Dehydroabietic Acid Derivatives Conjugated with Acyl-Thiourea Peptide Moiety as Antitumor Agents” (International Journal of Molecular Sciences, 2015).)
